The OPERA property sets (Mansouri et al. 2018)

Conditions: not given

Compared with O=Cc1ccc(Cl)cc1Cl, O=C(c1ccccc1)c1ccccn1 is higher in boiling point: 233 °C for the first, 317 °C for the second.

Going from C/C=C\C(C)(C)C to CC(C)=CC(=O)C=C(C)C, the boiling point rises from 80.4 °C to 198 °C.

Going from N#CCCCl to CCCC(C)Br (stereo not given), the boiling point falls from 176 °C to 117 °C.

Compared with OCc1c(F)c(F)c(F)c(F)c1F, FCC(F)F is lower in boiling point: 181 °C for the first, 5 °C for the second.

First: COC(=O)CCCCCCCCCCCC(=O)OC
Second: CCCCCCCCCCCCCC=O
The boiling point of the first is higher: 332 °C for the first, 260 °C for the second.

First: CCC(=O)O
Second: CCCOC(=O)CCC
The boiling point of the first is lower: 141 °C for the first, 143 °C for the second.

First: CCCCCCCCCCOC(C)=O
Second: O=C(C(Cl)(Cl)Cl)C(Cl)(Cl)Cl
The boiling point of the first is higher: 244 °C for the first, 203 °C for the second.

Compared with C#CC=C, C=CC1CC2C=CC1C2 (stereo not given) is higher in boiling point: 5.1 °C for the first, 140 °C for the second.

Going from c1ccccc1 to CN1[C@@H]2CC[C@H]1C[C@@H](O)C2, the boiling point rises from 80 °C to 237 °C.

Compared with O=Cc1ccc(Cl)cc1Cl, Cc1ccc2[nH]cnc2c1 is higher in melting point: 72 °C for the first, 116 °C for the second.

Compared with O=[N+]([O-])c1ccc(Nc2ccccc2)c([N+](=O)[O-])c1, Ic1cccc(-c2ccccc2)c1 is lower in melting point: 159 °C for the first, 26.5 °C for the second.

First: C/C=C\C(C)(C)C
Second: CC(C)=CC(=O)C=C(C)C
The melting point of the first is lower: -135 °C for the first, 28 °C for the second.

Compared with O=C(c1ccccc1)c1ccccn1, O=C(c1ccccc1)c1ccc(O)cc1O is higher in melting point: 42 °C for the first, 144 °C for the second.

Compared with O=C(O)c1cc(Oc2ccc(C(F)(F)F)cc2Cl)ccc1[N+](=O)[O-], CCOc1ccc(CC(=O)O)cc1 is lower in melting point: 150 °C for the first, 88.5 °C for the second.

Compared with COc1cc(C(=O)O)cc(OC)c1OC, CC=Cc1ccc(OCC)c(O)c1 is lower in melting point: 172 °C for the first, 87 °C for the second.

Compared with N#CCCCl, CCOC(=O)C(C#N)=Cc1ccccc1 is higher in melting point: -51 °C for the first, 51 °C for the second.

Compared with OCc1c(F)c(F)c(F)c(F)c1F, FCC(F)F is lower in melting point: 37.5 °C for the first, -84 °C for the second.

Compared with CC(C)=CCC/C(C)=C/C=C/C(C)=C/C=C/C(C)=C/C=C/C=C(C)/C=C/C=C(C)/C=C/C1=C(C)CCCC1(C)C, CC(=O)OC[C@H]1O[C@@](COC(C)=O)(O[C@H]2O[C@H](COC(C)=O)[C@@H](OC(C)=O)[C@H](OC(C)=O)[C@H]2OC(C)=O)[C@@H](OC(C)=O)[C@@H]1OC(C)=O is lower in melting point: 178 °C for the first, 86.5 °C for the second.

Going from COC(=O)CCCCCCCCCCCC(=O)OC to CCCCCCCCCCCC(N)=O, the melting point rises from 36 °C to 110 °C.

First: CCC(=O)O
Second: CC=C(CC)C(=O)NC(N)=O
The melting point of the first is lower: -20.7 °C for the first, 198 °C for the second.

Compared with COc1ccc(CCCCO)cc1, CCCCCC(=O)Nc1ccccc1 is higher in melting point: 3.5 °C for the first, 95 °C for the second.

Going from O=C1CC(=O)NC(=O)N1 to O=C1CNC(=O)N1, the melting point falls from 248 °C to 220 °C.

First: Nc1cccc([N+](=O)[O-])c1N
Second: Nc1nnc(-c2ccc([N+](=O)[O-])o2)s1
The melting point of the first is lower: 158 °C for the first, 280 °C for the second.

First: CCCCCCCCCCOC(C)=O
Second: CCCCCCCCCCCCCC=O
The melting point of the first is lower: -15 °C for the first, 20.5 °C for the second.

Going from O=C(O)CCCCCCCCC(=O)O to CCCCCCCCCCCCCCCCCCCCCCCCCCO, the melting point falls from 131 °C to 80 °C.

Going from CCCOC(=O)CCC to CCCC(C)Br (stereo not given), the melting point falls from -95.2 °C to -95.5 °C.

Going from O=C(C(Cl)(Cl)Cl)C(Cl)(Cl)Cl to O=[N+]([O-])C(CO)(CO)CO, the melting point rises from -2 °C to 214 °C.

First: [N-]=[N+]=Nc1ccccc1
Second: O=C(CBr)c1ccccc1
The melting point of the first is lower: -27.5 °C for the first, 50.5 °C for the second.

First: C=CC1CC2C=CC1C2 (stereo not given)
Second: CN1[C@@H]2CC[C@H]1C[C@@H](O)C2
The melting point of the first is lower: -80 °C for the first, 86.5 °C for the second.

Compared with C[C@H](CCC(=O)O)[C@H]1CC[C@H]2[C@@H]3[C@H](O)C[C@@H]4C[C@H](O)CC[C@]4(C)[C@H]3C[C@H](O)[C@]12C, CC(CN1C(=O)c2cccnc2Nc2ccccc21)N(C)C (stereo not given) is lower in melting point: 198 °C for the first, 122 °C for the second.

Going from O=[N+]([O-])c1ccc(Nc2ccccc2)c([N+](=O)[O-])c1 to c1ccccc1, the log10 vapour pressure (mmHg) rises from -8.52 to 1.98.

Compared with CCC(=O)O, CCCOC(=O)CCC is higher in log10 vapour pressure (mmHg): 0.548 for the first, 0.775 for the second.

First: O=C1CC(=O)NC(=O)N1
Second: O=C(O)CCCCCCCCC(=O)O
The log10 vapour pressure (mmHg) of the first is lower: -7.82 for the first, -7.26 for the second.

Going from C#CC=C to C=CC1CC2C=CC1C2 (stereo not given), the log10 vapour pressure (mmHg) falls from 3.13 to 0.992.

First: CC(C)=CC(=O)C=C(C)C
Second: CCCC(C)Br (stereo not given)
The log10 vapour pressure (mmHg) of the first is lower: -0.557 for the first, 1.33 for the second.

With O=C(c1ccccc1)c1ccccn1 the ready biodegradability was “readily biodegradable”.
In the case of CCC(=O)O, the ready biodegradability is reported as “readily biodegradable”.
In the case of O=C1CC(=O)NC(=O)N1, the ready biodegradability is reported as “readily biodegradable”.
For O=C(O)CCCCCCCCC(=O)O, the ready biodegradability was “readily biodegradable”.
For O=C1CNC(=O)N1, the ready biodegradability was “readily biodegradable”.
For O=C(Nc1ccc(Cl)c(Cl)c1)Nc1cc(Cl)ccc1Oc1ccc(Cl)cc1S(=O)(=O)O, the ready biodegradability was “not readily biodegradable”.
With O=C(c1ccccc1)c1ccc(O)cc1O the ready biodegradability was “not readily biodegradable”.
With c1ccccc1 the ready biodegradability was “readily biodegradable”.
In the case of CCCCCCCCCCCCCCCCCCCCCCCCCCO, the ready biodegradability is reported as “readily biodegradable”.
With O=[N+]([O-])C(CO)(CO)CO the ready biodegradability was “readily biodegradable”.

First: O=C(O)c1cc(Oc2ccc(C(F)(F)F)cc2Cl)ccc1[N+](=O)[O-]
Second: O=C(O)c1c(Cl)ccc(Cl)c1O
The log10 Koc (L/kg) of the first is lower: 2.05 for the first, 2.3 for the second.

Work on c1ccccc1 yielded a log10 Koc (L/kg) of 1.75.

First: CCC(=O)O
Second: c1ccccc1
The log10 Henry constant (atm·m³/mol) of the first is lower: -6.35 for the first, -2.26 for the second.

Molecule c1ccccc1 has a log10 Koa of 2.78.

c1ccccc1 gave a log10 biodegradation half-life (days) of 0.778.

Same assay, conditions: fish

Clc1ccc(-c2cccc(Cl)c2Cl)cc1Cl and Clc1ccc(-c2c(Cl)cc(Cl)c(Cl)c2Cl)cc1Cl are within 0.2 log units of each other in log10 biotransformation half-life (days): 2.47 for the first, 2.57 for the second.

CCCCCCC1CCCC(C)C1 (stereo not given) and CCCCCCCCC1CCCCC1 are within 0.2 log units of each other in log10 biotransformation half-life (days): 0.97 for the first, 1.1 for the second.

First: O=[N+]([O-])c1cccc(Cl)c1Cl
Second: COc1ccc(N)c([N+](=O)[O-])c1
The log10 biotransformation half-life (days) of the first is higher: 0.54 for the first, -0.87 for the second.

Compared with Cc1ccc([N+](=O)[O-])cc1, CC1(C)[C@H](C(=O)OCc2cccc(Oc3ccccc3)c2)[C@@H]1C=C(Cl)Cl (single isomer, unassigned) is higher in log10 biotransformation half-life (days): -1.01 for the first, 0.37 for the second.

Going from O=[N+]([O-])c1cccc(Cl)c1Cl to COc1ccc(N)c([N+](=O)[O-])c1, the log10 BCF falls from 2.16 to 0.85.

Going from C=CCOP(=O)(OCC=C)OCC=C to CC1(C)[C@H](C(=O)OCc2cccc(Oc3ccccc3)c2)[C@@H]1C=C(Cl)Cl (single isomer, unassigned), the log10 BCF rises from 0.08 to 2.65.

Going from COc1cc(Oc2ccc(Cl)cc2Cl)ccc1[N+](=O)[O-] to O=C(Nc1ccc(Cl)c(Cl)c1)Nc1cc(Cl)ccc1Oc1ccc(Cl)cc1S(=O)(=O)O, the log10 BCF falls from 3.59 to 1.87.

First: Cc1ccc([N+](=O)[O-])cc1
Second: c1ccccc1
The log10 BCF of the first is higher: 0.9 for the first, 0.63 for the second.

Going from C[C@@H]1CCC[C@H](C)N1 to Brc1cc(Br)c(Br)c(Oc2c(Br)c(Br)c(Br)c(Br)c2Br)c1Br, the log10 BCF rises from 0.7 to 5.57.
